Tested on: Calf thymus DNA
Assay: Displacement of ethidium bromide from calf thymus DNA
Type: nucleic-acid assay
Conditions: Bos taurus

SMILES | logC50 | logKA
O=C(CCN1CCOCC1)Nc1ccccc1-c1nc2ccccc2[nH]1 | -2.92 | 5.02
CC1CCCCN1CCC(=O)Nc1ccccc1-c1nc2ccccc2[nH]1 (configuration not stated) | -2.66 | 4.76
O=C(CN1CCOCC1)Nc1ccccc1-c1nc2ccccc2[nH]1 | -2.58 | 4.68
CC1CCN(CCC(=O)Nc2ccccc2-c2nc3ccccc3[nH]2)CC1 | -2.83 | 4.93
O=C(CN1CCCCC1)Nc1ccccc1-c1nc2ccccc2[nH]1 | -2.65 | 4.75
O=C(CCN1CCCCC1)Nc1ccccc1-c1nc2ccccc2[nH]1 | -2.8 | 4.9
CN1CCN(CC(=O)Nc2ccccc2-c2nc3ccccc3[nH]2)CC1 | -2.32 | 4.42
CC1CCCCN1CC(=O)Nc1ccccc1-c1nc2ccccc2[nH]1 (configuration not stated) | -2.66 | 4.76
c1ccc2c(c1)nc(CN1CCOCC1)n1c3ccccc3nc21 | -3.44 | 5.54
CN1CCN(CCC(=O)Nc2ccccc2-c2nc3ccccc3[nH]2)CC1 | -2.86 | 4.96
CCN(CC)CCOc1ccc2c(c1)C(=O)c1cc(OCCN(CC)CC)ccc1-2 | -4.2 | 6.3
CC1CCN(CC(=O)Nc2ccccc2-c2nc3ccccc3[nH]2)CC1 | -2.84 | 4.94

Second part, the molecule after the results:

logC50 | logKA | SMILES
-4.17 | 6.27 | CC1CCCCN1CCc1nc2ccccc2c2nc3ccccc3n12 (configuration not stated)
-4.18 | 6.28 | CN1CCN(CCc2nc3ccccc3c3nc4ccccc4n23)CC1
-3.84 | 5.94 | c1ccc2c(c1)nc(CN1CCCCC1)n1c3ccccc3nc21
-3.83 | 5.93 | CC1CCN(Cc2nc3ccccc3c3nc4ccccc4n23)CC1
-4.23 | 6.33 | CC1CCN(CCc2nc3ccccc3c3nc4ccccc4n23)CC1
-3.65 | 5.75 | CC1CCCCN1Cc1nc2ccccc2c2nc3ccccc3n12 (configuration not stated)
-4.03 | 6.13 | c1ccc2c(c1)nc(CCN1CCCCC1)n1c3ccccc3nc21
-3.72 | 5.82 | CN1CCN(Cc2nc3ccccc3c3nc4ccccc4n23)CC1
-4.12 | 6.22 | c1ccc2c(c1)nc(CCN1CCOCC1)n1c3ccccc3nc21

Source: ChEMBL document CHEMBL1153003, “Synthesis and affinity to DNA of phenylbenzoimidazoles and benzoimidazo[1,2-c]quinazolines” (Eur J Med Chem, 2009)
